Assay [1] has as its target KRas G12D (Homo sapiens, UniProt P01116, G12D). In words: biochemical. To be noted: Binding to KRas (IC50 nM) G12D, TR-FRET displacement, KRas G12D.
Assay [2] addresses KRas G12A (Homo sapiens, UniProt P01116, G12A). In kind it is binding. To be noted: TR-FRET displacement, read-out: Binding to KRas (IC50 nM) G12A. Background: TR-FRET usually uses a lanthanide donor and a delayed reading to cut background.
Assay [3] addresses KRas G12C (Homo sapiens, UniProt P01116, G12C). In kind it is binding. As to conditions: TR-FRET displacement, read-out: Binding to KRas (IC50 nM) G12C.
Assay [4] deals with KRas WT (Homo sapiens, UniProt P01116). In words: KRas binding assay (TR-FRET displacement), KRas WT. To be noted: TR-FRET displacement.
The target of assay [5] is KRas Q61H (Homo sapiens, UniProt P01116, Q61H). In words: KRas binding assay (TR-FRET displacement), KRas Q61H. As to conditions: TR-FRET displacement.
Assay [6] concerns the target KRas G12V (Homo sapiens, UniProt P01116, G12V). Briefly: biochemical. To be noted: Binding to KRas (IC50 nM) G12V, TR-FRET displacement, KRas G12V.
Assay [7] addresses KRas G12S (Homo sapiens, UniProt P01116, G12S). In kind it is binding. As to conditions: TR-FRET displacement, read-out: Binding to KRas (IC50 nM) G12S.
Assay [8] has as its target KRas G13D (Homo sapiens, UniProt P01116, G13D). In kind it is binding. To be noted: TR-FRET displacement, read-out: Binding to KRas (IC50 nM) G13D.
Assay [9] addresses KRas G12R (Homo sapiens, UniProt P01116, G12R). Briefly: biochemical. As to conditions: Binding to KRas (IC50 nM) G12R, TR-FRET displacement, KRas G12R.

For 11 compounds, IC50 results are on record in patent US20250368649A1, “TETRAHYDROPYRIDOPYRIMIDINE PAN-KRAS INHIBITORS” (Mirati Therapeutics, Inc., priority 2022, published 2025).

Sequence of KRas G13D (P01116 1-169 isoform P01116-2 G13D): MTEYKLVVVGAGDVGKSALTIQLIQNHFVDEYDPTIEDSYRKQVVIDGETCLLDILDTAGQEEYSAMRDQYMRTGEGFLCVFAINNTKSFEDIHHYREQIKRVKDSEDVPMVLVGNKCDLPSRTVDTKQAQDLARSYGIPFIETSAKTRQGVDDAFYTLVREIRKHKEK
Sequence of KRas G12R (P01116 1-169 isoform P01116-2 G12R): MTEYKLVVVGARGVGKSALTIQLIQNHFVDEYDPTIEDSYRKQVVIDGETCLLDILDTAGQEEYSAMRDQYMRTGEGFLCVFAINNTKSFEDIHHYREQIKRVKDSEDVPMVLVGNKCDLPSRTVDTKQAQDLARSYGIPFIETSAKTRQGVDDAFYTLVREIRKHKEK
Sequence of KRas G12V (P01116 1-169 isoform P01116-2 G12V): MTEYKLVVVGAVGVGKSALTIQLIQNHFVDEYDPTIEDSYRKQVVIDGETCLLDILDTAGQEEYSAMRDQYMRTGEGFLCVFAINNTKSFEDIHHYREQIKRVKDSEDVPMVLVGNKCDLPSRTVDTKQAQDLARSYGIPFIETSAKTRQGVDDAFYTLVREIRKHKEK
Sequence of KRas WT (P01116 1-169 isoform P01116-2): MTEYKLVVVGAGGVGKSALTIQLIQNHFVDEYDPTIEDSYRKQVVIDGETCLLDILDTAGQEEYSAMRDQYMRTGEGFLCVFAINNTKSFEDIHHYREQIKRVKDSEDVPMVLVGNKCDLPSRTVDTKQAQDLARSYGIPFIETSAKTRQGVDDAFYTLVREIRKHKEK
Sequence of KRas G12C (P01116 1-169 isoform P01116-2 G12C): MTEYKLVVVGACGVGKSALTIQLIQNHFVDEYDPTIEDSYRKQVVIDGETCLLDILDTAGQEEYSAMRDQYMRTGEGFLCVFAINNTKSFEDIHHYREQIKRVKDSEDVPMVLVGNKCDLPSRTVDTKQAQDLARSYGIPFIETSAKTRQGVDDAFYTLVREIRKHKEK
Sequence of KRas Q61H (P01116 1-169 isoform P01116-2 Q61H): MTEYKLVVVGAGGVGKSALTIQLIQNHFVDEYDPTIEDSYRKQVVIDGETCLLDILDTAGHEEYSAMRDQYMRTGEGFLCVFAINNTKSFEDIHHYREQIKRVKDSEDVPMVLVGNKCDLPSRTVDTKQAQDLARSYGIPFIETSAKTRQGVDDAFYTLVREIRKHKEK
Sequence of KRas G12A (P01116 1-169 isoform P01116-2 G12A): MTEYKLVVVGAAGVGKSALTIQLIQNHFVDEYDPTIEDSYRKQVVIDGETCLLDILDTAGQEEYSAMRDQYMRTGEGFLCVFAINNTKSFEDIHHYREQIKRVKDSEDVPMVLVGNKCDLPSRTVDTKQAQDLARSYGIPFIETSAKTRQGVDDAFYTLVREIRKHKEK
Sequence of KRas G12D (P01116 1-169 isoform P01116-2 G12D): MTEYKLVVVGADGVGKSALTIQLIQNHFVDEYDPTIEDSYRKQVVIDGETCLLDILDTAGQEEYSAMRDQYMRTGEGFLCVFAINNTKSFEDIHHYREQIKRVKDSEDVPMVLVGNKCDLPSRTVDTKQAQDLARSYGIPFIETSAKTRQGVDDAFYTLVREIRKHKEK
Sequence of KRas G12S (P01116 1-169 isoform P01116-2 G12S): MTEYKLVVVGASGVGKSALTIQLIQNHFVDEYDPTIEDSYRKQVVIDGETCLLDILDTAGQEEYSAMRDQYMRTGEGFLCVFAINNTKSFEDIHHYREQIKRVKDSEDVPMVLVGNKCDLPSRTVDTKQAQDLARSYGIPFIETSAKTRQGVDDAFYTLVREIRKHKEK

Usually IC50 stands for the concentration at which inhibition is half-maximal. On to `CCc1cccc2cccc(N3CCc4c(nc(OCC56CCCN5CCC6)nc4N4CCC(O)CC(S(C)(=O)=O)C4)C3)c12` (single isomer, unassigned) [Example 479, 1-(7-(8-ethylnaphthalen-1-yl)-2-((tetrahydro-1H-pyrrolizin-7a(5H)-yl)methoxy)-5,6,7,8-tetrahydropyrido[3,4-d]pyrimidin-4-yl)-6-(methylsulfonyl)azepan-4-ol], for which the half-inhibitory concentration (IC50) came out at 99 nM in assay [1]; 55 nM in assay [2]; 81 nM in assay [3]; 33 nM in assay [4]; 42 nM in assay [5]; 54 nM in assay [6]. Further, the IC50 amounted to 56 nM in assay [7], 32 nM in [8] and 130 nM in assay [9].

Consider `CCc1cccc2cccc(N3CCc4c(nc(OCC5(CN(C)C)CC5)nc4NCc4ccnn4CC(F)F)C3)c12` [Example 683, N-((1-(2,2-difluoroethyl)-1H-pyrazol-5-yl)methyl)-2-((1-((dimethylamino)methyl)cyclopropyl)methoxy)-7-(8-ethylnaphthalen-1-yl)-5,6,7,8-tetrahydropyrido[3,4-d]pyrimidin-4-amine], for which the IC50 turned out to be 8310 nM in assay [1]; 8280 nM in assay [2]; 5450 nM in assay [3]; 10800 nM in [4]; 12100 nM in assay [5]; 5850 nM in [6]. For the same compound, the IC50 was determined as 8600 nM in assay [7] and 16100 nM in assay [8].

Turning to `CCc1cccc2cccc(N3CCc4c(nc(OCC5(CN(C)C)CC5)nc4N4CCCN(CC(F)(F)F)CC4)C3)c12` [Example 684, 1-(1-(((7-(8-ethylnaphthalen-1-yl)-4-(4-(2,2,2-trifluoroethyl)-1,4-diazepan-1-yl)-5,6,7,8-tetrahydropyrido[3,4-d]pyrimidin-2-yl)oxy)methyl)cyclopropyl)-N,N-dimethylmethanamine], the IC50 in [1] turned out to be 41700 nM; in assay [2], 2640 nM; in assay [3], 1810 nM; in assay [4], 1880 nM; in assay [5] it was 2210 nM; in [6], 11200 nM. The IC50 in [7] was found to be 1960 nM; in [8], 2220 nM; in assay [9], 11400 nM.

Consider `CCc1cccc2cccc(N3CCc4c(nc(OCC5(CN(C)C)CC5)nc4N4CCC(n5cn[nH]c5=O)CC4)C3)c12` [Example 688, 4-(1-(2-((1-((dimethylamino)methyl)cyclopropyl)methoxy)-7-(8-ethylnaphthalen-1-yl)-5,6,7,8-tetrahydropyrido[3,4-d]pyrimidin-4-yl)piperidin-4-yl)-2,4-dihydro-3H-1,2,4-triazol-3-one], for which the half-maximal inhibitory concentration (IC50) in [1] worked out at 37400 nM; in assay [2], 9730 nM; in assay [3] it was 10000 nM; in assay [4] it was 14600 nM; in assay [5], 18100 nM; in assay [6], 6430 nM. Further, the IC50 in assay [7] was found to be 17700 nM; in assay [8] it was 14500 nM.

As to `CCc1cccc2cccc(N3CCc4c(nc(OCC5(CN(C)C)CC5)nc4N4CCCn5nc(CO)cc5C4)C3)c12` [Example 694, (5-(2-((1-((dimethylamino)methyl)cyclopropyl)methoxy)-7-(8-ethylnaphthalen-1-yl)-5,6,7,8-tetrahydropyrido[3,4-d]pyrimidin-4-yl)-5,6,7,8-tetrahydro-4H-pyrazolo[1,5-a][1,4]diazepin-2-yl)methanol], the IC50 in [1] came out at 131 nM; in assay [2] it was 2220 nM; in assay [3] it was 651 nM; in assay [4], 1930 nM; in assay [5], 4850 nM; in [6], 437 nM. In addition, the figures for the IC50 in assay [7] and in assay [8] were 946 nM and 4480 nM, respectively.

On to `CCc1cccc2cccc(N3CCc4c(nc(OCC5(CN(C)C)CC5)nc4NC4CN(c5nccn6nc(C)cc56)C4)C3)c12` [Example 699, 2-((1-((dimethylamino)methyl)cyclopropyl)methoxy)-7-(8-ethylnaphthalen-1-yl)-N-(1-(2-methylpyrazolo[1,5-a]pyrazin-4-yl)azetidin-3-yl)-5,6,7,8-tetrahydropyrido[3,4-d]pyrimidin-4-amine], for which the IC50 turned out to be 6150 nM in assay [1]; 8450 nM in assay [2]; 4200 nM in [3]; 7340 nM in assay [4]; 8740 nM in assay [5]; 5460 nM in [6]. Besides, the IC50 in assay [7] and in assay [8] was 9980 nM throughout.

Turning to `CCc1cccc2cccc(N3CCc4c(nc(OCC5(CN(C)C)CC5)nc4N(C)Cc4nnc5c(=O)n(C)ccn45)C3)c12` [Example 700, 3-(((2-((1-((dimethylamino)methyl)cyclopropyl)methoxy)-7-(8-ethylnaphthalen-1-yl)-5,6,7,8-tetrahydropyrido[3,4-d]pyrimidin-4-yl)(methyl)amino)methyl)-7-methyl-[1,2,4]triazolo[4,3-a]pyrazin-8(7H)-one], the IC50 amounted to 1380 nM in assay [1]; 474 nM in [2]; 251 nM in [3]; 522 nM in assay [4]; 577 nM in assay [5]; 452 nM in assay [6]. Moreover, the results for the IC50 in assay [7], in assay [8] and in [9] were 399 nM, 374 nM and 687 nM, respectively.

With `CCc1cccc2cccc(N3CCc4c(nc(OCC5(CN(C)C)CC5)nc4NCc4ncc5c(n4)CCOC5)C3)c12` [Example 701, N-((7,8-dihydro-5H-pyrano[4,3-d]pyrimidin-2-yl)methyl)-2-((1-((dimethylamino)methyl)cyclopropyl)methoxy)-7-(8-ethylnaphthalen-1-yl)-5,6,7,8-tetrahydropyrido[3,4-d]pyrimidin-4-amine], the IC50 in assay [1] came out at 7730 nM; in [2], 6300 nM; in assay [3], 3620 nM; in [4], 5290 nM; in assay [5] it was 6070 nM; in assay [6] it was 2030 nM. The IC50 was 5830 nM in [7] and 6620 nM in [8].

On to `CCc1cccc2cccc(N3CCc4c(nc(OCC5(CN(C)C)CC5)nc4NC4CC(n5ccnn5)C4)C3)c12` (stereo not shown) [Example 703, N-(3-(1H-1,2,3-triazol-1-yl)cyclobutyl)-2-((1-((dimethylamino)methyl)cyclopropyl)methoxy)-7-(8-ethylnaphthalen-1-yl)-5,6,7,8-tetrahydropyrido[3,4-d]pyrimidin-4-amine], for which the IC50 stood at 10700 nM in [1]; 13500 nM in assay [2]; 9490 nM in assay [3]; 12400 nM in assay [4]; 15900 nM in assay [5]; 4790 nM in assay [6]. The IC50 in assay [7] was 13500 nM; in assay [8], 16100 nM.

Turning to `CCc1cccc2cccc(N3CCc4c(nc(OCC5(CN(C)C)CC5)nc4NCC4COCC4n4cc(C(N)=O)nn4)C3)c12` (stereo not shown) [Example 705, 1-(4-(((2-((1-((dimethylamino)methyl)cyclopropyl)methoxy)-7-(8-ethylnaphthalen-1-yl)-5,6,7,8-tetrahydropyrido[3,4-d]pyrimidin-4-yl)amino)methyl)tetrahydrofuran-3-yl)-1H-1,2,3-triazole-4-carboxamide], the IC50 in [1] turned out to be 3070 nM; in [2], 16500 nM; in [3], 10900 nM; in assay [4], 13300 nM; in [5], 15900 nM; in [6], 8520 nM. The figures for the half-inhibitory concentration (IC50) in assay [7] and in [8] were 20500 nM and 21800 nM, respectively.

On to `CCc1cccc2cccc(N3CCc4c(nc(OCC5(CN(C)C)CC5)nc4NCc4ncc(C#N)c(N)n4)C3)c12` [Example 706, 4-amino-2-(((2-((1-((dimethylamino)methyl)cyclopropyl)methoxy)-7-(8-ethylnaphthalen-1-yl)-5,6,7,8-tetrahydropyrido[3,4-d]pyrimidin-4-yl)amino)methyl)pyrimidine-5-carbonitrile], for which the IC50 in [1] was 7670 nM; in assay [2] it was 2810 nM; in [3] it was 1680 nM; in assay [4] it was 3310 nM; in assay [5], 3770 nM; in assay [6], 2200 nM. Moreover, the IC50 in assay [7] stood at 2820 nM; in [8], 3330 nM.
